Test results taken from patent publication EP2289528A1, “Novel nutraceutical compositions containing black pepper or its constituents improving mental performance” (DSM IP Assets B.V., priority 2009, dated 2011).
Where two headings read alike, the source gives them in different places.

Tests used:
[1] = target: T1, human glycine transporter 1b cDNA (GlyT1) (Homo sapiens, UniProt P48067); assay: Inhibition of glycine transporter 1 in a cellular assay ([3H] glycine uptake into CHO cells); format: cell-based
T1 construct: expressed in transfected cells
T1 sequence (P48067 1-652 isoform P48067-3): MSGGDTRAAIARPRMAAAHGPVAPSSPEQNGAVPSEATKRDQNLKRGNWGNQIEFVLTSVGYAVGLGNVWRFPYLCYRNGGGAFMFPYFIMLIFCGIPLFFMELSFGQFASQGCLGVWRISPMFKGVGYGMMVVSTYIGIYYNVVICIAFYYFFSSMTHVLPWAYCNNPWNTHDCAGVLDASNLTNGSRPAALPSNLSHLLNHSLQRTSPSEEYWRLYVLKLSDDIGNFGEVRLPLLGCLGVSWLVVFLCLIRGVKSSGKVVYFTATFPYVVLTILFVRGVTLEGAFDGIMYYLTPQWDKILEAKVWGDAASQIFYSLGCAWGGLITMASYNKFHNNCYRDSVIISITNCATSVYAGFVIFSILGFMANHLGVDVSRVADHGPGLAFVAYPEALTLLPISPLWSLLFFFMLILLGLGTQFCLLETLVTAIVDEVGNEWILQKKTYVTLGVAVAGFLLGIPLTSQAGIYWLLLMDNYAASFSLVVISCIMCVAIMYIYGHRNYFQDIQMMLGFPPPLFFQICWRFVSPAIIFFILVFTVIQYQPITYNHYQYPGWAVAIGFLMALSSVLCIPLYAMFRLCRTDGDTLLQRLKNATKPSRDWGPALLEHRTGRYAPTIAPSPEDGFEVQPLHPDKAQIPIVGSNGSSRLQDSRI
Method: Cells were harvested by trypsinisation one day prior to the assay and were seeded in the above mentioned medium. Immediately prior to the assay, the medium was replaced by uptake buffer containing 150 mM NaCl, 1 mM CaCl2, 2.5 mM KCl, 2.5 mM MgCl2, 10 mM Glucose and 10 mM N-2-hydroxyethylpiperazine-N'-2-ethanesulfonic acid ("Hepes" buffer). […] Louis, USA) were used as known inhibitors of GlyT1. […] Data is shown as mean ± s.e.m., where the IC50 is stated as µM for pure compounds and as µg/mLfor extracts.

pMAPK = assay: Hippocampal slice cultures, immunohistochemistry of synaptic marker pMAPK; format: cell-based, Wistar rats; conditions: relative activation vs sister cultures treated with buffer; 15 min treatment after 48 h in culture; note: key: ++++ shows a qualitative maximal activation; -- shows a reduced activation; ++ signifies a half-maximum activation; ± demonstrated no change in immunoreactivity
Method: (§1) Seven-day-old Wistar rats were decapitated using a guillotine. […] Transversal hippocampal slices (400 µm) were prepared using a vibrating blade microtome (VT1200S; Leica Microsystems (Schweiz) AG, Heerbrugg, Switzerland) in the same buffer. Hippocampal slices were individually placed on a membrane insert (Millicell Culture Plate Inserts, 0.4 µm) and cultivated at 35 °C, 5% CO2, 95% humidity in a medium containing a 1:1 mixture of BME and MEM (both from Invitrogen) containing 25% heat-inactivated horse serum, 1x GlutaMAX, 1x Penicillin/Streptomycin, 0.6% glucose and 1mM Kynurenic acid (Stoppini, Buchs and Muller (1991), J. Neurosci. Methods, 37(2), 173-82). After 48 h in culture, synaptic NMDA receptors were activated by addition of black pepper extract or its constituents for 15 min in 140 mM NaCl, 5 mM KCl, 1.3 mM CaCl2, 25 mM HEPES (pH 7.3), 33 mM D-glucose and 0.02 mM bicuculline methiodide. […] After the treatments, sections were washed and fixed for immunohistochemistry. Markers of enhanced synaptic activity, normally associated with long-term potentiation, representing an ex vivo model of learning and memory were quantitated (see Table 2, below). Table 2. […] The activation of any of these markers (or a combination thereof) is observed in classical LTP experiments. TABLE 2 […]

pCREB = assay: Hippocampal slice cultures, immunohistochemistry of synaptic marker pCREB; format: cell-based, Wistar rats; conditions: relative activation vs sister cultures treated with buffer; 15 min treatment after 48 h in culture; note: key: ++++ shows a qualitative maximal activation; -- shows a reduced activation; ++ signifies a half-maximum activation; ± demonstrated no change in immunoreactivity
Method: as §1

GluR1 = assay: Hippocampal slice cultures, immunohistochemistry of synaptic marker GluR1; format: cell-based, Wistar rats; conditions: relative activation vs sister cultures treated with buffer; 15 min treatment after 48 h in culture
Method: Seven-day-old Wistar rats were decapitated using a guillotine. […] Transversal hippocampal slices (400 µm) were prepared using a vibrating blade microtome (VT1200S; Leica Microsystems (Schweiz) AG, Heerbrugg, Switzerland) in the same buffer. Hippocampal slices were individually placed on a membrane insert (Millicell Culture Plate Inserts, 0.4 µm) and cultivated at 35 °C, 5% CO2, 95% humidity in a medium containing a 1:1 mixture of BME and MEM (both from Invitrogen) containing 25% heat-inactivated horse serum, 1x GlutaMAX, 1x Penicillin/Streptomycin, 0.6% glucose and 1mM Kynurenic acid (Stoppini, Buchs and Muller (1991), J. Neurosci. Methods, 37(2), 173-82). After 48 h in culture, synaptic NMDA receptors were activated by addition of black pepper extract or its constituents for 15 min in 140 mM NaCl, 5 mM KCl, 1.3 mM CaCl2, 25 mM HEPES (pH 7.3), 33 mM D-glucose and 0.02 mM bicuculline methiodide. […] After the treatments, sections were washed and fixed for immunohistochemistry. Markers of enhanced synaptic activity, normally associated with long-term potentiation, representing an ex vivo model of learning and memory were quantitated (see Table 2, below). Table 2. […] The activation of any of these markers (or a combination thereof) is observed in classical LTP experiments.

[2] = pure compounds, CHO cells expressing GlyT1, 60 nM [3H] glycine, 30 minutes at room temperature

CC(C)CNC(=O)/C=C/C=C/c1ccc2c(c1)OCO2 [Piperlonguminine]
IC50 for tritiated glycine uptake [1, 2]: inactive

NCC(=O)O [Glycine, reference compound]
pMAPK (pMAPK): ++
pCREB (pCREB): ++

COc1cc(/C=C/C(=O)N2CCC=CC2=O)cc(OC)c1OC [Piperlongumine]
IC50 for tritiated glycine uptake [1, 2]: inactive
pMAPK (pMAPK): ±
GluR1 (GluR1): 412-931%
pCREB (pCREB): ±

CNCC(=O)O [Sarcosine, reference compound]
pMAPK (pMAPK): ±
pCREB (pCREB): ±

O=C(/C=C/C=C/c1ccc2c(c1)OCO2)N1CCCCC1 [Piperine]
IC50 [1]: 48.7 µM
pMAPK (pMAPK): ±
GluR1 (GluR1): 119-1742%
pCREB (pCREB): ±

CN(CC[C@@H](Oc1ccc(C(F)(F)F)cc1)c1ccccc1)CC(=O)O [ORG24598, reference compound]
IC50 ([1]; read-out: IC50 for tritiated glycine uptake, pure compounds, CHO cells expressing GlyT1, 60 nM [3H] glycine, 30 minutes at room temperature): 0.02 µM
